# Reference: patent US4110327A, “2,3 Diketo-piperazinocarbonylamino alkanoic acids and derivatives” (Toyama Chemical Co., Ltd., priority 1974, dated 1978)
# Assays:
# Escherichia coli NIHJ = assay: MIC against standard strain, plate method; type: cell-based; details: unit assumed
# Outline: (§1)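 MIC values come from the plate method on heart infusion agar at pH 7.4, with each plate receiving 10^4 cells from a 10^6 cells/ml suspension.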
# Klebsiella pneumoniae [1] = assay: MIC against standard strain, plate method; type: cell-based; details: unit assumed
# Outline: as §1
# Proteus vulgaris 3027 = assay: MIC against standard strain, plate method; type: cell-based; details: Proteus vulgaris 3027, standard strain; unit assumed
# Outline: as §1
# [2] = tested on: Pseudomonas aeruginosa I.F.O.; assay: MIC against standard strain, plate method; type: cell-based; details: unit assumed
# Outline: as §1
# [3] = tested on: Staphylococcus aureus 209p; assay: MIC against standard strain, plate method; type: cell-based; details: unit assumed
# Outline: as §1
# Staphylococcus aureus = assay: MIC against clinical isolates; type: cell-based; details: unit assumed
# Escherichia coli = assay: MIC against clinical isolates; type: cell-based; details: unit assumed
# Pseudomonas aeruginosa = assay: MIC against clinical isolates; type: cell-based; details: unit assumed
# Klebsiella pneumoniae [4] = assay: MIC against clinical isolates; type: cell-based; details: unit assumed
# Shigella flexneri = assay: MIC against clinical isolates; type: cell-based; details: unit assumed
# Experimental: (§2) The minimum inhibitory concentrations (MIC) was determined by the plate method disclosed in "Chemotherapy" (Japan), Vol. 16, (1968), pages 98 - 99. The culture medium used was a Heart infusion agar (pH 7.4). The number of the cells per plate used in the inoculum as 10^4 (10^6 cells/ml).
# (§3) MIC was determined in the same manner as in the preceding paragraph (1).
# Shigella sonnei = assay: MIC against clinical isolates; type: cell-based; details: unit assumed
# Experimental: as §2, §3
# Salmonella typhi = assay: MIC against clinical isolates; type: cell-based; details: unit assumed
# Salmonella typhi-murium = assay: MIC against clinical isolates; type: cell-based; details: unit assumed
# Proteus mirabilis = assay: MIC against clinical isolates; type: cell-based; details: clinical isolate, unit assumed
# Proteus morganii = assay: MIC against clinical isolates; type: cell-based; details: clinical isolate, unit assumed
# Proteus vulgaris = assay: MIC against clinical isolates; type: cell-based; details: clinical isolate, unit assumed
# Proteus rettgeri = assay: MIC against clinical isolates; type: cell-based; details: clinical isolate, unit assumed
# β-lactamase = assay: Resistant activity against β-lactamase, iodometric assay; type: biochemical, Pseudomonas aeruginosa GN 238; details: relative to Potassium Penicillin G = 100
# Experimental: (3) Resistant activity against β-lactamase, Pseudomonas aergionan GN 238:
# The resistant activity of each compound against β-lactamase was measured in the manner described below.
# β-Lactamase was prepared from Pseudomonas aeruginosa GN 238. This microorganism was cultured in 100 ml of a medium containing 2 g of yeast extract, 10 g of polypeptone, 2 g of glucose, 7 g of disodium hydrogen phosphate, 2 g of potassium dihydrogen phosphate, 1.2 g of ammonium sulfate and 0.4 g of magnesium sulfate, per liter, in a 500-ml Erlenmeyer flask for 6 hrs. at 37° C with shaking. The resulting cells were collected by centrifugation (5,000 r.p.m. × 10 min.), washed three times with 0.1 M phosphate buffer (pH 7.0). Subsequently, the cells were subjected to sonication (20 KHz, 20 min.) and then centrifuged at 15,000 r.p.m. for 60 min. By using the supernatant of enzyme fluid, the resistance of each compound against β-lactamase was determined by the iodometric assay method. Each numeral shown in Table 7 is a relative activity value calculated by assuming as 100 the activity of the control Potassium Penicillin G.
# [5] = clinical isolate GN (number not given; Table 5-3)
structure (smiles),measurement,setting,value
"CCCCCCCCN1CCN(C(=O)N[C@@H](C(=O)N[C@@H]2C(=O)N3[C@@H]2SC(C)(C)[C@@H]3C(=O)O)c2ccccc2)C(=O)C1=O (single isomer, unassigned) [compound 47]",MIC,Escherichia coli NIHJ,< 1.57 µg/mL
same,MIC,Klebsiella pneumoniae [1],< 1.57 µg/mL
same,MIC,Proteus vulgaris 3027,< 1.57 µg/mL
same,MIC,[2],6.25 µg/mL
same,MIC,[3],< 1.57 µg/mL
same,MIC,Staphylococcus aureus; clinical isolate F-1,6.25 µg/mL
same,MIC,Staphylococcus aureus; clinical isolate F-4,12.5 µg/mL
same,MIC,Staphylococcus aureus; clinical isolate F-5,> 200 µg/mL
same,MIC,Staphylococcus aureus; clinical isolate MS 8619,< 0.4 µg/mL
same,MIC,Staphylococcus aureus; clinical isolate MS 8713,6.25 µg/mL
same,MIC,Escherichia coli; clinical isolate GN 3435,0.79 µg/mL
same,MIC,Escherichia coli; clinical isolate GN 3465,6.25 µg/mL
same,MIC,Escherichia coli; clinical isolate GN 3611,> 200 µg/mL
same,MIC,Escherichia coli; clinical isolate K-3,100 µg/mL
same,MIC,Escherichia coli; clinical isolate K-4,0.79 µg/mL
same,MIC,Pseudomonas aeruginosa; clinical isolate GN 82,12.5 µg/mL
same,MIC,Pseudomonas aeruginosa; clinical isolate GN 163,12.5 µg/mL
same,MIC,Pseudomonas aeruginosa; clinical isolate GN 221,25 µg/mL
same,MIC,Pseudomonas aeruginosa; clinical isolate GN 376,50 µg/mL
same,MIC,Pseudomonas aeruginosa; clinical isolate GN 383,25 µg/mL
same,MIC,Pseudomonas aeruginosa; clinical isolate GN 1035,25 µg/mL
same,MIC,Pseudomonas aeruginosa; clinical isolate GN 1091,12.5 µg/mL
same,MIC,Pseudomonas aeruginosa; clinical isolate GN 2565,25 µg/mL
same,MIC,Pseudomonas aeruginosa; clinical isolate GN 2987,12.5 µg/mL
same,MIC,Pseudomonas aeruginosa; [5],25 µg/mL
same,MIC,Pseudomonas aeruginosa; clinical isolate S-1,50 µg/mL
same,MIC,Pseudomonas aeruginosa; clinical isolate S-2,50 µg/mL
same,MIC,Pseudomonas aeruginosa; clinical isolate S-3,50 µg/mL
same,MIC,Pseudomonas aeruginosa; clinical isolate S-4,50 µg/mL
same,MIC,Klebsiella pneumoniae [4]; clinical isolate GN 4081,12.5 µg/mL
same,MIC,Klebsiella pneumoniae [4]; clinical isolate GN 4117,12.5 µg/mL
same,MIC,Shigella flexneri; clinical isolate JS 11215,6.25 µg/mL
same,MIC,Shigella sonnei; clinical isolate JS 11232,6.25 µg/mL
same,MIC,Shigella sonnei; clinical isolate JS 11755,0.79 µg/mL
same,MIC,Salmonella typhi; clinical isolate SL 819,3.13 µg/mL
same,MIC,Salmonella typhi; clinical isolate SL 2169,1.57 µg/mL
same,MIC,Salmonella typhi-murium; clinical isolate SL 858,< 0.4 µg/mL
same,MIC,Salmonella typhi-murium; clinical isolate SL 2136,50 µg/mL
same,MIC,Proteus mirabilis,< 0.4 µg/mL
same,MIC,Proteus morganii,< 0.4 µg/mL
same,MIC,Proteus vulgaris,< 0.4 µg/mL
same,MIC,Proteus rettgeri,0.79 µg/mL
same,Relative activity,β-lactamase,1%
CCN1CCN(C(=O)N[C@@H](C(=O)N[C@@H]2C(=O)N3[C@@H]2SC(C)(C)[C@@H]3C(=O)O)c2ccccc2)C(=O)C1=O [compound 36],MIC,Escherichia coli NIHJ,< 1.57 µg/mL
same,MIC,Klebsiella pneumoniae [1],< 1.57 µg/mL
same,MIC,Proteus vulgaris 3027,< 1.57 µg/mL
same,MIC,[3],< 1.57 µg/mL
same,MIC,Staphylococcus aureus; clinical isolate F-1,12.5 µg/mL
same,MIC,Staphylococcus aureus; clinical isolate F-2,3.13 µg/mL
same,MIC,Staphylococcus aureus; clinical isolate F-5,> 200 µg/mL
same,MIC,Staphylococcus aureus; clinical isolate MS 8588,3.13 µg/mL
same,MIC,Staphylococcus aureus; clinical isolate MS 8596,3.13 µg/mL
same,MIC,Staphylococcus aureus; clinical isolate MS 8619,0.79 µg/mL
same,MIC,Staphylococcus aureus; clinical isolate MS 8684,3.13 µg/mL
same,MIC,Escherichia coli; clinical isolate GN 3452,3.13 µg/mL
same,MIC,Escherichia coli; clinical isolate GN 3465,100 µg/mL
same,MIC,Escherichia coli; clinical isolate GN 3481,3.13 µg/mL
same,MIC,Escherichia coli; clinical isolate GN 3611,> 200 µg/mL
same,MIC,Escherichia coli; clinical isolate K-1,3.13 µg/mL
same,MIC,Escherichia coli; clinical isolate K-2,3.13 µg/mL
same,MIC,Escherichia coli; clinical isolate K-3,> 200 µg/mL
same,MIC,Pseudomonas aeruginosa; clinical isolate GN 221,3.13 µg/mL
same,MIC,Pseudomonas aeruginosa; clinical isolate GN 1035,25 µg/mL
same,MIC,Pseudomonas aeruginosa; clinical isolate GN 2565,25 µg/mL
same,MIC,Pseudomonas aeruginosa; clinical isolate GN 2987,12.5 µg/mL
same,MIC,Pseudomonas aeruginosa; [5],12.5 µg/mL
same,MIC,Pseudomonas aeruginosa; clinical isolate S-1,50 µg/mL
same,MIC,Pseudomonas aeruginosa; clinical isolate S-2,12.5 µg/mL
same,MIC,Pseudomonas aeruginosa; clinical isolate S-3,25 µg/mL
same,MIC,Pseudomonas aeruginosa; clinical isolate S-4,50 µg/mL
same,MIC,Klebsiella pneumoniae [4]; clinical isolate GN 3850,12.5 µg/mL
same,MIC,Klebsiella pneumoniae [4]; clinical isolate GN 4081,100 µg/mL
same,MIC,Klebsiella pneumoniae [4]; clinical isolate GN 4117,100 µg/mL
same,MIC,Shigella flexneri; clinical isolate JS 11215,100 µg/mL
same,MIC,Shigella flexneri; clinical isolate JS 11839,3.13 µg/mL
same,MIC,Shigella sonnei; clinical isolate JS 11232,50 µg/mL
same,MIC,Shigella sonnei; clinical isolate JS 11755,3.13 µg/mL
same,MIC,Salmonella typhi; clinical isolate SL 819,1.57 µg/mL
same,MIC,Salmonella typhi; clinical isolate SL 2169,1.57 µg/mL
same,MIC,Salmonella typhi-murium; clinical isolate SL 858,6.25 µg/mL
same,MIC,Salmonella typhi-murium; clinical isolate SL 2136,> 200 µg/mL
same,MIC,Proteus mirabilis,< 0.4 µg/mL
same,MIC,Proteus morganii,< 0.4 µg/mL
same,MIC,Proteus vulgaris,< 0.4 µg/mL
same,MIC,Proteus rettgeri,12.5 µg/mL
same,Relative activity,β-lactamase,14%
"CCCCCN1CCN(C(=O)N[C@@H](C(=O)N[C@@H]2C(=O)N3[C@@H]2SC(C)(C)[C@@H]3C(=O)O)c2ccccc2)C(=O)C1=O (single isomer, unassigned) [compound 45]",MIC,Escherichia coli NIHJ,< 0.1 µg/mL
same,MIC,Klebsiella pneumoniae [1],0.79 µg/mL
same,MIC,Proteus vulgaris 3027,0.4 µg/mL
same,MIC,[2],12.5 µg/mL
same,MIC,[3],0.79 µg/mL
same,MIC,Staphylococcus aureus; clinical isolate F-1,6.25 µg/mL
same,MIC,Staphylococcus aureus; clinical isolate F-4,6.25 µg/mL
same,MIC,Staphylococcus aureus; clinical isolate F-5,> 200 µg/mL
same,MIC,Staphylococcus aureus; clinical isolate MS 8588,3.13 µg/mL
same,MIC,Staphylococcus aureus; clinical isolate MS 8596,3.13 µg/mL
same,MIC,Staphylococcus aureus; clinical isolate MS 8619,0.79 µg/mL
same,MIC,Staphylococcus aureus; clinical isolate MS 8684,3.13 µg/mL
same,MIC,Staphylococcus aureus; clinical isolate MS 8713,6.25 µg/mL
same,MIC,Escherichia coli; clinical isolate GN 3435,0.79 µg/mL
same,MIC,Escherichia coli; clinical isolate GN 3465,25 µg/mL
same,MIC,Escherichia coli; clinical isolate GN 3611,> 200 µg/mL
same,MIC,Escherichia coli; clinical isolate K-1,0.79 µg/mL
same,MIC,Escherichia coli; clinical isolate K-3,200 µg/mL
same,MIC,Escherichia coli; clinical isolate K-4,0.79 µg/mL
same,MIC,Pseudomonas aeruginosa; clinical isolate GN 82,12.5 µg/mL
same,MIC,Pseudomonas aeruginosa; clinical isolate GN 163,12.5 µg/mL
same,MIC,Pseudomonas aeruginosa; clinical isolate GN 221,3.13 µg/mL
same,MIC,Pseudomonas aeruginosa; clinical isolate GN 376,25 µg/mL
same,MIC,Pseudomonas aeruginosa; clinical isolate GN 383,25 µg/mL
same,MIC,Pseudomonas aeruginosa; clinical isolate GN 1035,50 µg/mL
same,MIC,Pseudomonas aeruginosa; clinical isolate GN 1091,12.5 µg/mL
same,MIC,Pseudomonas aeruginosa; clinical isolate GN 2565,25 µg/mL
same,MIC,Pseudomonas aeruginosa; clinical isolate GN 2987,12.5 µg/mL
same,MIC,Pseudomonas aeruginosa; [5],25 µg/mL
same,MIC,Pseudomonas aeruginosa; clinical isolate S-1,25 µg/mL
same,MIC,Pseudomonas aeruginosa; clinical isolate S-2,25 µg/mL
same,MIC,Pseudomonas aeruginosa; clinical isolate S-3,50 µg/mL
same,MIC,Pseudomonas aeruginosa; clinical isolate S-4,25 µg/mL
same,MIC,Klebsiella pneumoniae [4]; clinical isolate GN 3850,3.13 µg/mL
same,MIC,Klebsiella pneumoniae [4]; clinical isolate GN 4081,25 µg/mL
same,MIC,Klebsiella pneumoniae [4]; clinical isolate GN 4117,25 µg/mL
same,MIC,Shigella flexneri; clinical isolate JS 11215,25 µg/mL
same,MIC,Shigella sonnei; clinical isolate JS 11232,25 µg/mL
same,MIC,Salmonella typhi; clinical isolate SL 819,1.57 µg/mL
same,MIC,Salmonella typhi; clinical isolate SL 2169,0.79 µg/mL
same,MIC,Salmonella typhi-murium; clinical isolate SL 858,0.79 µg/mL
same,MIC,Salmonella typhi-murium; clinical isolate SL 2136,200 µg/mL
same,MIC,Proteus mirabilis,< 0.4 µg/mL
same,MIC,Proteus morganii,0.79 µg/mL
same,MIC,Proteus vulgaris,< 0.4 µg/mL
same,MIC,Proteus rettgeri,6.25 µg/mL
same,Relative activity,β-lactamase,16%
